The values that follow are results of earlier work, collected in patent publication US20220202844A1, “DRUG DELIVERY COMPOSITION AND A METHOD OF ADMINISTERING THE DRUG” (priority 2020, published 2022).

Converted amounts (≈) assume the structure as drawn.

For the data set the following is noted: background statement.

In the case of `NC(=O)c1ccc[n+]([C@@H]2O[C@H](COP(=O)([O-])OP(=O)(O)OC[C@H]3O[C@@H](n4cnc5c(N)ncnc54)[C@H](O)[C@@H]3O)[C@@H](O)[C@H]2O)c1` [NAD+, nicotinamide adenine dinucleotide], the aqueous solubility (usually the concentration that dissolves in the medium under given conditions) is 50 mg/mL (≈ 75.4 mM).
